Test results reported in patent publication US6642251B1, “Geometrically restricted 2-indolinone derivatives as modulators of protein kinase activity” (Sugen, Inc., priority 1998, dated 2003).

Test system: A375 cells (melanoma)
Experiment: A375 sc xenograft animal model
Assay type: in vivo, athymic mice (BALB/c, nu/nu)
Conditions: for % inhibition: vs vehicle
From the text: The ability of human tumors to grow as xenografts in athymic mice (e.g., Balb/c, nu/nu) provides a useful in vivo model for studying the biological response to therapies for human tumors. Since the first successful xeno-transplantation of human tumors into athymic mice, (Rygaard and Poylsen, 1969, Acta Pathol. Microbial. Scand., 77:758-760), many different human tumor cell lines (e.g., mammary, lung, genitourinary, gastro-intestinal, head and neck, glioblastoma, bone, and malignant melanomas) have been transplanted and successfully grown in nude mice. The following assays may be used to determine the level of activity, specificity and effect of the different compounds of the present invention. Three general types of assays are useful for evaluating compounds: cellular/catalytic, cellular/biological and in vivo. The object of the cellular/catalytic assays is to determine the effect of a compound on the ability of a TK to phosphorylate tyrosines on a known substrate in a cell. The object of the cellular/biological assays is to determine the effect of a compound on the biological response stimulated by a TK in a cell. The object of the in vivo assays is to determine the effect of a compound in an animal model of a particular disorder such as cancer.
Suitable cell lines for subcutaneous xenograft experiments include C6 cells (glioma, ATCC #CCL 107), A375 cells (melanoma, ATCC #CRL 1619), A431 cells (epidermoid carcinoma, ATCC #CRL 1555), Calu 6 cells (lung, ATCC #HTB 56), PC3 cells (prostate, ATCC #CRL 1435), SKOV3TP5 cells and NIH 3T3 fibroblasts genetically engineered to overexpress EGFR, PDGFR, IGF-1R or any other test kinase. The following protocol can be used to perform xenograft experiments:
Female athymic mice (BALB/c, nu/nu) are obtained from Simonsen Laboratories (Gilroy, Calif.). All animals are maintained under clean-room conditions in Micro-isolator cages with Alpha-dri bedding. They receive sterile rodent chow and water ad libitum.
Cell lines are grown in appropriate medium (for example, MEM, DMEM, Ham's F10, or Ham's F12 plus 5%-10% fetal bovine serum (FBS) and 2 mM glutamine (GLN)). All cell culture media, glutamine, and fetal bovine serum are purchased from Gibco Life Technologies (Grand Island, N.Y.) unless otherwise specified. All cells are grown in a humid atmosphere of 90-95% air and 5-10% CO2 at 37° C. All cell lines are routinely subcultured twice a week and are negative for mycoplasma as determined by the Mycotect method (Gibco).
Cells are harvested at or near confluency with 0.05% Trypsin-EDTA and pelleted at 450×g for 10 min. Pellets are resuspended in sterile PBS or media (without FBS) to a particular concentration and the cells are implanted into the hindflank of the mice (8-10 mice per group, 2-10×10^6 cells/animal). Tumor growth is measured over 3 to 6 weeks using venier calipers. Tumor volumes are calculated as a product of length×width×height unless otherwise indicated. P values are calculated using the Students t-test. Test compounds in 50-100 μL excipient (DMSO, or VPD:D5W (U.S. Pat. No. 5,610,173 to Sxhwartz, et al.), can be delivered by IP injection at different concentrations generally starting at day one after implantation.

## COc1ccc2c(c1)C(CC(=O)[O-])CC2=C1C(=O)Nc2ccccc21.[Na+] (stereo not drawn) [Compound 13, [6-Methoxy-3-(2-oxo-1,2-dihydroindol-3-ylidene)-indan-1-yl]acetic Acid Sodium Salt]
50 mg/kg/day
  Average Tumor Volume: 569.9 mm3
  % inhibition: 24.6%
100 mg/kg/day
  Average Tumor Volume: 324.4 mm3
  % inhibition: 57.1%
200 mg/kg/day
  Average Tumor Volume: 278.8 mm3
  % inhibition: 63.1%
